How the values were obtained:
PiHXT5 [1] = target: T1, PiHXT5 (Serendipita indica, UniProt G4TIR7); test: competition of […]-glucose uptake in yeast EBY.VW4000; format: cell-based; conditions: 25 μM 14C-glucose, five-fold excess of unlabelled sugar, 1 min, 30 °C; intact cells
T1 construct: gene PIIN_05137

PiHXT5 [2] = target: T1, PiHXT5; test: […]-glucose uptake in yeast EBY.VW4000, Michaelis-Menten fit; format: cell-based; conditions: pH 6.5, 50 mM potassium phosphate, 0.6 M sorbitol; intact cells; labelled compound; H+ symport; read-out: apparent Km

T1 sequence (G4TIR7 entry or part of it): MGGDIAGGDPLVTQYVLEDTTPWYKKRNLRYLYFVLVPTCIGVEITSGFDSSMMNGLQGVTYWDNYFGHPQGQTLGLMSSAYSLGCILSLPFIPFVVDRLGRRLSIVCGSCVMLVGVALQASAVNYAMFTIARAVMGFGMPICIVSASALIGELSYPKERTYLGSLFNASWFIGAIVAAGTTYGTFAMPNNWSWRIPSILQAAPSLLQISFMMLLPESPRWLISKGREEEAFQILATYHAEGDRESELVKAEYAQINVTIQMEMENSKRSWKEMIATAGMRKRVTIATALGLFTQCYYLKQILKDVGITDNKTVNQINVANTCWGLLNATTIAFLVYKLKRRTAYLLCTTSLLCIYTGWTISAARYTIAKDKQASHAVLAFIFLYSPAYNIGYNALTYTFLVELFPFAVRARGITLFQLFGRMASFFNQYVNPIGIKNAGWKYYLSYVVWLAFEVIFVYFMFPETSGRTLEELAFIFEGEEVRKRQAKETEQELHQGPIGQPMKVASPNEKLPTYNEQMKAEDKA

Compound	% of control 14C-glucose uptake at five-fold excess (PiHXT5 [1])	Km (PiHXT5 [2])
OC[C@H]1OC(O)[C@H](O)[C@@H](O)[C@H]1O (stereo partly drawn) [D-galactose]	PiHXT5 is able to transport Glc, Fru, Xyl, Man, and Gal with decreasing affinity	–
OC[C@H]1OC(O)[C@H](O)[C@@H](O)[C@@H]1O (stereo partly drawn) [D-glucose]	–	2560 ± 180 µM
OC1OC[C@@H](O)[C@H](O)[C@H]1O (stereo partly drawn) [D-xylose]	PiHXT5 is able to transport Glc, Fru, Xyl, Man, and Gal with decreasing affinity	–
OCC1(O)OC[C@@H](O)[C@@H](O)[C@@H]1O (stereo partly drawn) [D-fructose]	PiHXT5 is able to transport Glc, Fru, Xyl, Man, and Gal with decreasing affinity	–
OC[C@H]1OC(O)[C@@H](O)[C@@H](O)[C@@H]1O (stereo partly drawn) [D-mannose]	PiHXT5 is able to transport Glc, Fru, Xyl, Man, and Gal with decreasing affinity	–
